# Measured values as given in publication PMC12498136, “Synthesis and biological evaluation of novel carnosic acid derivatives with anticancer activity” (RSC Advances, 2025).
# Where two headings read alike, the source gives them in different places.
# Assays:
# HCT116 cells [1] = assay: MTT cell viability assay in HCT116 cells; format: cell-based; conditions: for IC50: Homo sapiens, read-out: IC50 HCT116
# Protocol: The MTT assay was used to assess the effect of the compounds on cell viability. […] Subsequently, the culture medium was switched with a new medium containing DMSO (control) or the compound at a specified concentration. […] The plates were then incubated for 1 h at 37 °C. After this time, the supernatant was aspirated, and the formazan crystals were dissolved in 100 μL of DMSO in each well. Relative cell viability was calculated by measuring absorbance at 570 nm using a Benchmark Plus Microplate Reader (Bio-Rad Laboratories, Hercules, CA, USA).
# SW480 cells = assay: MTT cell viability assay in SW480 cells; format: cell-based
# Protocol: (§1) The MTT assay was used to assess the effect of the compounds on cell viability. For this purpose, A375 (1500 cells per well), BJ (10 000 cells per well), Caco-2 (4000 cells per well), HCT116 (3000 cells per well), Mia Paca-2 (2000 cells per well), SW480 (6000 cells per well), and SW620 (8000 cells per well) cells were seeded in 96-well plates and incubated for 24 h. Subsequently, the culture medium was switched with a new medium containing DMSO (control) or the compound at a specified concentration. Following a 72 h incubation period, the supernatant was aspirated, and 100 μL of a mixture (1 : 1) of filtered MTT solution (1 mg per mL PBS) and FBS-free medium was added. The plates were then incubated for 1 h at 37 °C. After this time, the supernatant was aspirated, and the formazan crystals were dissolved in 100 μL of DMSO in each well. Relative cell viability was calculated by measuring absorbance at 570 nm using a Benchmark Plus Microplate Reader (Bio-Rad Laboratories, Hercules, CA, USA). Results are presented as the mean ± standard deviation (SD) of IC50 values, determined by nonlinear regression analysis of dose–response curves (log(inhibitor) vs. response with variable slope (four parameters)) using GraphPad Prism 9 software (GraphPad Software, San Diego, CA, USA).
# SW620 cells [2] = assay: MTT cell viability assay in SW620 cells; format: cell-based; conditions: Homo sapiens, SW-620; MTT assay, 72 h incubation, mean ± SD; read-out: IC50 SW620
# Protocol: as §1
# Caco-2 cells = assay: MTT cell viability assay in Caco-2 cells; format: cell-based; conditions: Homo sapiens, Caco-2; MTT assay, 72 h incubation, mean ± SD; read-out: IC50 Caco-2
# Protocol: as §1
# Mia Paca-2 cells [3] = assay: MTT cell viability assay in Mia Paca-2 cells; format: cell-based; conditions: Homo sapiens, MIA PaCa-2; MTT assay, 72 h incubation, mean ± SD; read-out: IC50 Mia Paca-2
# Protocol: as §1
# A375 cells [4] = assay: MTT cell viability assay in A375 cells; format: cell-based; conditions: Homo sapiens, A-375; MTT assay, 72 h incubation, mean ± SD; read-out: IC50 A375
# Protocol: as §1
# HCT116 cells [5] = conditions: MTT assay, 72 h; previously determined by the research team, ref [26]; cited from earlier work
# SW620 cells [6] = test system: SW620 cells; parameters: method as in PMID 31909511; conditions: MTT assay, previously determined by the research team, ref [35]; cited from earlier work
# Mia Paca-2 cells [7] = test system: Mia Paca-2 cells; parameters: method as in PMID 18007390; conditions: MTT assay, from the literature, ref [37]; cited from earlier work
# A375 cells [8] = test system: A375 cells; parameters: method as in PMID 23229057; conditions: MTT assay, from the literature, ref [38]; cited from earlier work
# BJ cells = test system: BJ cells; parameters: method as in doi:10.1039/C5RA19120C; conditions: MTT assay, previously determined by the research team, ref [39]; read-out: IC50 BJ (non-tumoral); cited from earlier work
# [9] = HCT-116, MTT assay, 72 h incubation, mean ± SD
# [10] = SW480 cells, ratio of IC50 values
smiles,measurement,setting,value
"COC(=O)N[C@]12CCCC(C)(C)[C@@H]1CCc1cc(C(C)C)c(OC(C)=O)c(OC(C)=O)c12 [Compound 15, (4bR,8aS)-4b-[(Methoxycarbonyl)amino]-8,8-dimethyl-2-(propan-2-yl)-4b,5,6,7,8,8a,9,10-octahydrophenanthrene-3,4-diyl diacetate]",IC50,"HCT116 cells [1]; HCT-116, 72 h",55 ± 5 µM
"CCCCOC(=O)[C@]12CCCC(C)(C)[C@@H]1CC(=O)c1cc(C(C)C)c(OC(C)=O)c(OC(C)=O)c12 [Compound 8, Butyl(4aR,10aS)-5,6-bis(acetyloxy)-1,1-dimethyl-9-oxo-7-(propan-2-yl)-1,3,4,9,10,10a-hexahydrophenanthrene-4a(2H)-carboxylate]",fold more active than cisplatin,"HCT116 cells [1]; HCT116 cells, ratio of IC50 values",1.4 fold
same,IC50,HCT116 cells [1]; [9],15.1 ± 0.7 µM
same,IC50,"SW480 cells; Homo sapiens, SW480, MTT assay, 72 h incubation, mean ± SD, read-out: IC50 SW480",6.8 ± 0.6 µM
same,fold more active than cisplatin,SW480 cells; [10],2.2 fold
same,fold more potent than CA 1,SW480 cells; [10],3.2 fold
same,IC50,SW620 cells [2],11 ± 1 µM
same,IC50,Caco-2 cells,12.7 ± 0.3 µM
same,IC50,Mia Paca-2 cells [3],12 ± 1 µM
same,IC50,A375 cells [4],8.1 ± 0.5 µM
"CCCCOC(=O)[C@]12CCCC(C)(C)[C@@H]1CCc1cc(C(C)C)c(OC(C)=O)c(OC(C)=O)c12 [Compound 5, Butyl(4aR,10aS)-5,6-bis(acetyloxy)-1,1-dimethyl-7-(propan-2-yl)-1,3,4,9,10,10a-hexahydrophenanthrene-4a(2H)-carboxylate]",IC50,HCT116 cells [1]; [9],26 ± 1 µM
"CC(=O)Oc1c(C(C)C)cc2c(c1OC(C)=O)[C@@]1(C(=O)O)CCCC(C)(C)[C@@H]1CC2 [Compound 2, (4aR,10aS)-5,6-Bis(acetyloxy)-1,1-dimethyl-7-(propan-2-yl)1,3,4,9,10,10a-hexahydrophenanthrene-4a(2H)-carboxylic acid]",IC50,HCT116 cells [1]; [9],44 ± 4 µM
"CCOC(=O)N[C@]12CCCC(C)(C)[C@@H]1CCc1cc(C(C)C)c(OC(C)=O)c(OC(C)=O)c12 [Compound 16, (4bR,8aS)-4b-[(Ethoxycarbonyl)amino]-8,8-dimethyl-2-(propan-2-yl)-4b,5,6,7,8,8a,9,10-octahydrophenanthrene-3,4-diyl diacetate]",IC50,"HCT116 cells [1]; HCT-116, 72 h",37 ± 2 µM
"CCOC(=O)[C@]12CCCC(C)(C)[C@@H]1CC(=O)c1cc(C(C)C)c(OC(C)=O)c(OC(C)=O)c12 [Compound 7, Ethyl(4aR,10aS)-5,6-bis(acetyloxy)-1,1-dimethyl-9-oxo-7-(propan-2-yl)-1,3,4,9,10,10a-hexahydrophenanthrene-4a(2H)-carboxylate]",IC50,HCT116 cells [1]; [9],31 ± 3 µM
"COC(=O)[C@]12CCCC(C)(C)[C@@H]1CC(=O)c1cc(C(C)C)c(OC(C)=O)c(OC(C)=O)c12 [Compound 6, Methyl(4aR,10aS)-5,6-bis(acetyloxy)-1,1-dimethyl-9-oxo-7-(propan-2-yl)-1,3,4,9,10,10a-hexahydrophenanthrene-4a(2H)-carboxylate]",IC50,HCT116 cells [1]; [9],36 ± 1 µM
"CCOC(=O)N[C@]12CCCC(C)(C)[C@@H]1CC(=O)c1cc(C(C)C)c(OC(C)=O)c(OC(C)=O)c12 [Compound 19, (4bR,8aS)-4b-[(Ethoxycarbonyl)amino]-8,8-dimethyl-10-oxo-2-(propan-2-yl)-4b,5,6,7,8,8a,9,10-octahydrophenanthrene-3,4-diyl diacetate]",IC50,"HCT116 cells [1]; HCT-116, 72 h",48.2 ± 0.1 µM
"CCCCOC(=O)[C@]12CCCC(C)(C)[C@@H]1CC(O)c1cc(C(C)C)c(OC(C)=O)c(OC(C)=O)c12 (stereo partly drawn) [Compound 11, Butyl(4aR,10aS)-5,6-bis(acetyloxy)-9-hydroxy-1,1-dimethyl-7-(propan-2-yl)-1,3,4,9,10,10a-hexahydrophenanthrene-4a(2H)-carboxylate]",IC50,HCT116 cells [1]; [9],27 ± 4 µM
"CC(C)c1cc2c(c(O)c1O)[C@@]1(C(=O)O)CCCC(C)(C)[C@@H]1CC2 [CA 1, Carnosic acid]",IC50,HCT116 cells [1]; [9],42 ± 4 µM
same,IC50,SW620 cells [2],18 ± 2 µM
same,IC50,Caco-2 cells,34 ± 2 µM
same,IC50,Mia Paca-2 cells [3],21 ± 1 µM
"COC(=O)[C@]12CCCC(C)(C)[C@@H]1CC(O)c1cc(C(C)C)c(OC(C)=O)c(OC(C)=O)c12 (stereo partly drawn) [Compound 9, Methyl(4aR,10aS)-5,6-bis(acetyloxy)-9-hydroxy-1,1-dimethyl-7-(propan-2-yl)-1,3,4,9,10,10a-hexahydrophenanthrene-4a(2H)-carboxylate]",IC50,HCT116 cells [1]; [9],37 ± 3 µM
N.N.[Cl][Pt][Cl] [Cisplatin],IC50,HCT116 cells [5],21 ± 1 µM
same,IC50,SW620 cells [6],1.4 ± 0.5 µM
same,IC50,Mia Paca-2 cells [7],5 ± 1 µM
same,IC50,A375 cells [8],3 ± 1 µM
same,IC50,BJ cells,10 ± 2 µM
"COC(=O)N[C@]12CCCC(C)(C)[C@@H]1CC(=O)c1cc(C(C)C)c(OC(C)=O)c(OC(C)=O)c12 [Compound 18, (4bR,8aS)-4b-[(Methoxycarbonyl)amino]-8,8-dimethyl-10-oxo-2-(propan-2-yl)-4b,5,6,7,8,8a,9,10-octahydrophenanthrene-3,4-diyl diacetate]",IC50,"HCT116 cells [1]; HCT-116, 72 h",> 50 µM
"CCOC(=O)[C@]12CCCC(C)(C)[C@@H]1CC(O)c1cc(C(C)C)c(OC(C)=O)c(OC(C)=O)c12 (stereo partly drawn) [Compound 10, Ethyl(4aR,10aS)-5,6-bis(acetyloxy)-9-hydroxy-1,1-dimethyl-7-(propan-2-yl)-1,3,4,9,10,10a-hexahydrophenanthrene-4a(2H)-carboxylate]",IC50,HCT116 cells [1]; [9],34 ± 3 µM
"CCOC(=O)[C@]12CCCC(C)(C)[C@@H]1CCc1cc(C(C)C)c(OC(C)=O)c(OC(C)=O)c12 [Compound 4, Ethyl(4aR,10aS)-5,6-bis(acetyloxy)-1,1-dimethyl-7-(propan-2-yl)-1,3,4,9,10,10a-hexahydrophenanthrene-4a(2H)-carboxylate]",IC50,"HCT116 cells [1]; HCT-116, 72 h",25 ± 2 µM
"CC(=O)Oc1c(C(C)C)cc2c(c1OC(C)=O)[C@@]1(N=C=O)CCCC(C)(C)[C@@H]1CC2 [Compound 14, (4bR,8aS)-4b-Isocyanato-8,8-dimethyl-2-(propan-2-yl)-4b,5,6,7,8,8a,9,10-octahydrophenanthrene-3,4-diyl diacetate]",IC50,"HCT116 cells [1]; HCT-116, 72 h",28 ± 3 µM
